Columns and labels:
Format in all cases: cell-based, human
[1] = test system: RAS-mutant cancer cell lines pERK; assay: Phospho-ERK inhibition in a panel of cancer cell lines (AlphaLISA)
Method: All cancer cell lines (A375, A101D, A2058, RKO, HT29 SK-MEL 30, IPC298, HepG2, HCT-116, Lovo, SW620, SW480, NCI-H358, NCI-H2122, Calu-6, NCIH2087, NCIH1755, NCIH1666 and Mewo) were obtained from ATCC and cultured in RPMI-1640 medium (Gibco) supplemented with 5% heat inactivated fetal bovine serum (FBS, Wisent) at 37° C. under 5% CO2. Cells were maintained in T175 flasks (Greiner). They were passaged by removing the culture medium, washing once in 10 mL of room temperature Phosphate Buffered Saline (PBS; Wisent) and incubating at 37° C. with 2 mL of 0.05% Trypsin (Thermo-Fisher). […]
After treatment, media was removed, and cells were lysed in 50 μL of 1× AlphaScreen Ultra Lysis Buffer (Perkin Elmer). […] After completion of the reactions, the signals were recorded on an EnVision plate reader (Perkin Elmer) using built in AlphaLISA® settings.
The effect of each compound dilution on the pERK signal was expressed in % inhibition and calculated as follows. […]
The ability of each compound to inhibit pERK signal was expressed as an IC50 value obtained by plotting the inhibition values for each data point of a dilution series and fitting the obtained curves using a log(agonist) versus response−variable slope (four parameters) function using GraphPadPrism (V7.0). […]

[2] = test system: NCIH2087 pERK; assay: Phospho-ERK inhibition, AlphaLISA SureFire Ultra p-ERK 1/2; settings: Table D-2
Summary of the method: (§1)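 Cells plated in RPMI-1640 with 5% FBS, held overnight, then exposed 1 h to ten-point compound dilutions (top 30 or 10 μM down to 0.33 nM; 0.5% DMSO). Lysates read for p-ERK1/2 (Thr202/Tyr204) by AlphaLISA; % inhibition relative to DMSO after subtracting a 1 μM trametinib background; IC50 from four-parameter fit.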

[3] = test system: Mewo pERK; assay: as above; settings: Table D-2; for Mewo pERK, value in parentheses, % inhibition: % Ymin of pERK IC50 curve
Summary of the method: as §1

[4] = test system: NCIH1755 pERK; assay: as above; settings: Table D-2; for Ymin of pERK inhibition curve (%): % Ymin of pERK IC50 curve
Summary of the method: as §1

[5] = test system: Calu6 pERK; assay: as above; settings: Table D-2; for Calu6 pERK, value in parentheses, % inhibition: % Ymin of pERK IC50 curve
Summary of the method: as §1

[6] = test system: SW620 pERK; assay: as above; settings: Table D-2; for pERK IC50 curve bottom (Ymin), %: % Ymin of pERK IC50 curve
Summary of the method: as §1

[7] = test system: Lovo pERK; assay: as above; settings: Table D-2; for pERK curve Ymin (%): % Ymin of pERK IC50 curve
Summary of the method: as §1

[8] = test system: HepG2 pERK; assay: as above; settings: Table D-1; for HepG2 pERK, value in parentheses, % inhibition: % Ymin of pERK IC50 curve
Summary of the method: as §1

[9] = test system: NCI-H2122 pERK; assay: as above; settings: Table D-2; for NCI-H2122 pERK, value in parentheses, % inhibition: % Ymin of pERK IC50 curve
Summary of the method: as §1

[10] = test system: SK-MEL30 pERK; assay: as above; settings: Table D-1; for SK-MEL30 pERK, value in parentheses, % inhibition: % Ymin of pERK IC50 curve
Summary of the method: as §1

[11] = test system: IPC298 pERK; assay: as above; settings: Table D-1; for IPC298 pERK, value in parentheses, % inhibition: % Ymin of pERK IC50 curve
Summary of the method: as §1

[12] = test system: NCI-H358 pERK; assay: as above; settings: Table D-2; for NCI-H358 pERK, value in parentheses, % inhibition: % Ymin of pERK IC50 curve
Summary of the method: as §1

IC50 [2] [nM] | Ymin of pERK IC50 curve (%) [2] | IC50 [3] [nM] | IC50 [4] [nM] | IC50 [5] [nM] | IC50 [6] [nM] | pERK IC50 curve bottom (Ymin), % [6] | IC50 [7] [nM] | IC50 [8] [nM] | IC50 [9] [nM] | IC50 [10] [nM] | Compound | Mewo pERK, value in parentheses, % inhibition [3] | Ymin of pERK inhibition curve (%) [4] | Calu6 pERK, value in parentheses, % inhibition [5] | pERK curve Ymin (%) [7] | HepG2 pERK, value in parentheses, % inhibition [8] | NCI-H2122 pERK, value in parentheses, % inhibition [9] | SK-MEL30 pERK, value in parentheses, % inhibition [10] | IPC298 pERK, value in parentheses, % inhibition [11] | NCI-H358 pERK, value in parentheses, % inhibition [12] | also measured
 |  |  |  |  |  |  |  |  |  |  | Cc1ccc2c(Nc3cccc(Cl)c3F)nccc2c1NC(=O)c1csc2c(N)ncnc12 [Belvarafenib, reference compound] | (−116) % | (−79) % | (−39) % | (−12) % | (−36) % | (−9) % | (−45) % | (−63) % | (−122) % | paradoxical induction of the pathway (pERK) ([1]; RAS-mutant cell lines of Table D): mild to strong induction of the pathway; YMIN of pERK IC50 curves ([1]; in 11 of the 13 RAS-mutant cell lines tested): < −30%; IC50 ([2]; Homo sapiens, NCI-H2087): < 30 nM; IC50 ([3]; Homo sapiens, MeWo): 30 to 300 nM; IC50 ([4]; Homo sapiens, NCI-H1755): 30 to 300 nM; IC50 ([5]; Homo sapiens, Calu-6): 30 to 300 nM; IC50 ([6]; Homo sapiens, SW-620): 30 to 300 nM; IC50 ([7]; Homo sapiens, LoVo): < 30 nM; IC50 ([8]; Homo sapiens, HepG2): 30 to 300 nM; IC50 ([9]; Homo sapiens, NCI-H2122): 30 to 300 nM; IC50 ([10]; Homo sapiens, SK-MEL-30): < 30 nM; IC50 ([11]; Homo sapiens, IPC-298): 30 to 300 nM; IC50 ([12]; Homo sapiens, NCI-H358): 30 to 300 nM
< 30 | (6) % | 30 to 300 | < 30 | 30 to 300 | 30 to 300 | (36) % | 30 to 300 | < 30 | 30 to 300 | < 30 | Cc1c(F)cccc1S(=O)(=O)Nc1ccc(F)c(Nc2ncnc3cnc(-n4cc(C(=O)N(C)Cc5ccncc5)c5ccccc54)nc23)c1F [Example 98] | (9) % | (9) % | (5) % | (27) % | (27) % | (26) % | (10) % | (13) % | (20) % | IC50 [11]: 30 to 300 nM; IC50 [12]: 30 to 300 nM
< 30 | (−7) % | < 30 | < 30 | 30 to 300 | 30 to 300 | (11) % | 30 to 300 | 30 to 300 | 30 to 300 | < 30 | COc1ccc(S(=O)(=O)Nc2ccc(F)c(Nc3ncnc4cnc(-n5cnc6c(N)cccc65)nc34)c2F)c(C)c1Cl [Example 112] | (12) % | (12) % | (1) % | (−1) % | (−10) % | (−15) % | (6) % | (1) % | (−8) % | IC50 [11]: 30 to 300 nM; IC50 [12]: 30 to 300 nM
 | (2) % |  |  |  |  | (−13) % |  |  |  |  | Cc1c(F)cccc1S(=O)(=O)Nc1ccc(F)c(Nc2ncnc3cnc(-n4cnc5c(-c6cccnc6)cccc54)nc23)c1F [Example 114] | (−12) % | (−5) % | (8) % | (4) % | (14) % | (0) % | (−9) % | (1) % | (−4) % | IC50 ([2]; Homo sapiens, NCI-H2087): 30 to 300 nM; IC50 ([3]; Homo sapiens, MeWo): 30 to 300 nM; IC50 ([4]; Homo sapiens, NCI-H1755): 30 to 300 nM; IC50 ([5]; Homo sapiens, Calu-6): 30 to 300 nM; IC50 ([6]; Homo sapiens, SW-620): > 300 nM; IC50 ([7]; Homo sapiens, LoVo): < 30 nM; IC50 ([8]; Homo sapiens, HepG2): 30 to 300 nM; IC50 ([9]; Homo sapiens, NCI-H2122): 30 to 300 nM; IC50 ([10]; Homo sapiens, SK-MEL-30): 30 to 300 nM; IC50 ([11]; Homo sapiens, IPC-298): 30 to 300 nM; IC50 ([12]; Homo sapiens, NCI-H358): > 300 nM
< 30 | (3) % | 30 to 300 | < 30 | 30 to 300 | > 300 | (−7) % | 30 to 300 | 30 to 300 | > 300 | < 30 | O=S(=O)(Nc1ccc(F)c(Nc2ncnc3cnc(-n4cnc5c(N6CCC7(CCCO7)CC6)cccc54)nc23)c1F)c1cccc(Cl)c1Cl [Example 129] | (−5) % | (−2) % | (−1) % | (−2) % | (−2) % | (−14) % | (16) % | (17) % | (−3) % | IC50 [11]: 30 to 300 nM; IC50 [12]: 30 to 300 nM

Source: patent publication US20240239801A1, “PYRIMIDO[5,4,D]PYRIMIDINE COMPOUNDS, COMPOSITIONS COMPRISING THEM AND USES THEREOF” (Université de Montréal, priority 2021, published 2024)
